# Experimental data: ChEMBL document CHEMBL4265965, “Dichloroacetophenones targeting at pyruvate dehydrogenase kinase 1 with improved selectivity and antiproliferative activity: Synthesis and structure-activity relationships” (Bioorg Med Chem Lett, 2018)
# Active and inactive are the calls of the source. No cut-off for these calls is given here.
# Tests used:
# NCI-H1975 [1] = test: Antiproliferative activity against human NCI-H1975 cells assessed as inhibition of cell proliferation at 12 uM after 72 hrs by MTT assay relative to control; assay type: functional; settings: for inhibition at 12 µM: NCI-H1975, 72 h
# NCI-H1975 [2] = test: Antiproliferative activity against human NCI-H1975 cells assessed as inhibition of cell proliferation at 6 uM after 72 hrs by MTT assay relative to control; assay type: functional; settings: for inhibition at 6 µM: NCI-H1975, 72 h
# NCI-H1975 [3] = test: Antiproliferative activity against human NCI-H1975 cells assessed as inhibition of cell proliferation at 2 uM after 72 hrs by MTT assay relative to control; assay type: functional; settings: for inhibition at 2 µM: NCI-H1975, 72 h
# NCI-H1650 [4] = test: Antiproliferative activity against human NCI-H1650 cells assessed as inhibition of cell proliferation at 12 uM after 72 hrs by MTT assay relative to control; assay type: functional; settings: for inhibition at 12 µM: NCI-H1650, 72 h
# NCI-H1650 [5] = test: Antiproliferative activity against human NCI-H1650 cells assessed as inhibition of cell proliferation at 6 uM after 72 hrs by MTT assay relative to control; assay type: functional; settings: for inhibition at 6 µM: NCI-H1650, 72 h
# NCI-H1650 [6] = test: Antiproliferative activity against human NCI-H1650 cells assessed as inhibition of cell proliferation at 2 uM after 72 hrs by MTT assay relative to control; assay type: functional; settings: for inhibition at 2 µM: NCI-H1650, 72 h
# A549 [7] = test: Antiproliferative activity against human A549 cells assessed as inhibition of cell proliferation at 12 uM after 72 hrs by MTT assay relative to control; assay type: functional; settings: for inhibition at 12 µM: A549, 72 h
# A549 [8] = test: Antiproliferative activity against human A549 cells assessed as inhibition of cell proliferation at 6 uM after 72 hrs by MTT assay relative to control; assay type: functional; settings: for inhibition at 6 µM: A549, 72 h
# A549 [9] = test: Antiproliferative activity against human A549 cells assessed as inhibition of cell proliferation at 2 uM after 72 hrs by MTT assay relative to control; assay type: functional; settings: for inhibition at 2 µM: A549, 72 h
# Sus scrofa = organism: Sus scrofa; test: Inhibition of porcine PDK1 assessed as activation of pyruvate dehydrogenase complex at 1 uM measured after 3 mins
# [10] = target: [Pyruvate dehydrogenase (acetyl-transferring)] kinase isozyme 1, mitochondrial (Homo sapiens, UniProt Q15118); test: Inhibition of recombinant human N-terminal His6/Sumo-tagged PDK1 (29 to 436 residues) expressed in Escherichia coli BL21 at 1 uM by kinase-glo luminescence assay relative to control
SMILES,inhibition (Sus scrofa),inhibition [10],inhibition at 12 µM (NCI-H1975 [1]) [%],inhibition at 6 µM (NCI-H1975 [2]) [%],inhibition at 2 µM (NCI-H1975 [3]) [%],inhibition at 12 µM (NCI-H1650 [4]) [%],inhibition (NCI-H1650 [5]),inhibition (NCI-H1650 [6]),inhibition at 12 µM (A549 [7]) [%],inhibition at 6 µM (A549 [8]) [%],inhibition at 2 µM (A549 [9]) [%],inhibition (NCI-H1975 [3]),inhibition at 6 µM (NCI-H1650 [5]) [%],inhibition (A549 [9]),inhibition at 2 µM (NCI-H1650 [6]) [%],inhibition (NCI-H1650 [4]),inhibition (NCI-H1975 [1]),inhibition (NCI-H1975 [2]),inhibition (A549 [7]),inhibition (A549 [8])
O=C(Nc1ccccc1)C(Cl)Cl,inactive,inactive,30.2,21.6,–,21.3,–,inactive,20.3,14.6,–,inactive,15.5,inactive,–,–,–,–,–,–
O=C(c1ccccc1I)C(Cl)Cl,–,inactive,96.5,90.8,28.6,99.4,–,–,41.2,7.8,–,–,57.1,inactive,21,–,–,–,–,–
CC(C)Oc1ccc(C(=O)CCl)cc1[N+](=O)[O-],Active,Active,85.6,27.7,–,51.4,–,inactive,38.9,14.8,–,inactive,24.8,inactive,–,–,–,–,–,–
O=C(c1ccccc1F)C(Cl)Cl,–,inactive,48.6,12.8,4.4,–,inactive,inactive,13.6,10.1,–,–,–,inactive,–,inactive,–,–,–,–
O=C(c1ccccc1Cl)C(Cl)Cl,–,inactive,71,39,12.6,42.9,–,–,27.9,4.6,–,–,19.7,inactive,10.3,–,–,–,–,–
O=C(CCl)c1cccnc1,inactive,inactive,–,–,–,–,inactive,inactive,–,–,–,inactive,–,inactive,–,inactive,inactive,inactive,inactive,inactive
O=C(c1ccc(Cl)c(Cl)c1)C(Cl)Cl,–,inactive,98.4,95.8,74.1,100,–,–,96.7,74.5,42.1,–,92.7,–,54,–,–,–,–,–
Cc1ccc(C(=O)C(Cl)Cl)cc1,–,19.7%,95.7,83.1,28.6,78.4,–,–,80,33.2,–,–,54.3,inactive,31.2,–,–,–,–,–
O=C(c1ccco1)C(Cl)Cl,2.5%,inactive,94.5,58.6,31.2,85.7,–,–,79.8,35.8,8.9,–,48.9,–,21.4,–,–,–,–,–
O=C(c1ccncc1)C(Cl)Cl,8.9%,inactive,91.7,41.6,2.29,80.3,–,–,21.3,6.6,2.1,–,34.4,–,15.6,–,–,–,–,–
Cc1ccccc1C(=O)C(Cl)Cl,–,inactive,93,69.8,39.8,69.6,–,–,79.8,62.2,23.7,–,46.7,–,27.2,–,–,–,–,–

# The next lines start with results.
inhibition (Sus scrofa),inhibition [10],SMILES,inhibition at 12 µM (NCI-H1975 [1]) [%],inhibition at 6 µM (NCI-H1975 [2]) [%],inhibition at 2 µM (NCI-H1975 [3]) [%],inhibition at 12 µM (NCI-H1650 [4]) [%],inhibition (NCI-H1650 [5]),inhibition (NCI-H1650 [6]),inhibition at 12 µM (A549 [7]) [%],inhibition at 6 µM (A549 [8]) [%],inhibition at 2 µM (A549 [9]) [%],inhibition (NCI-H1975 [3]),inhibition at 6 µM (NCI-H1650 [5]) [%],inhibition (A549 [9]),inhibition at 2 µM (NCI-H1650 [6]) [%],inhibition (NCI-H1650 [4]),inhibition (NCI-H1975 [1]),inhibition (NCI-H1975 [2]),inhibition (A549 [7]),inhibition (A549 [8])
Active,Active,O=C(c1ccc(OCCBr)c([N+](=O)[O-])c1)C(Cl)Cl,80,53.2,15.2,23,inactive,inactive,63.7,24.5,9.5,–,–,–,–,–,–,–,–,–
inactive,inactive,Cc1ccccc1NC(=O)C(Cl)Cl,22.9,19.5,–,15.4,–,inactive,13.2,9.9,–,inactive,14.5,inactive,–,–,–,–,–,–
Active,Active,CCCCCCOc1ccc(C(=O)C(Cl)Cl)cc1[N+](=O)[O-],98.3,51.7,5.7,99.7,–,–,83.1,33.4,1.2,–,53.1,–,3.6,–,–,–,–,–
Active,Active,O=C(c1ccc(OCCCCBr)c([N+](=O)[O-])c1)C(Cl)Cl,86.7,54.7,15,66.7,–,–,72.9,33.4,5.7,–,38.8,–,21.8,–,–,–,–,–
–,inactive,O=C(c1ccccc1C(F)(F)F)C(Cl)Cl,10.2,2.1,–,16.7,–,–,8.3,9,3,inactive,12.7,–,8.1,–,–,–,–,–
Active,Active,CCCCOc1ccc(C(=O)C(Cl)Cl)cc1[N+](=O)[O-],98.9,96.3,55.7,63.1,–,inactive,95.2,79.9,28.3,–,28.8,–,–,–,–,–,–,–
–,50.5%,Cc1ccc(C(=O)C(Cl)Cl)cc1[N+](=O)[O-],99.7,89.5,15.8,94.6,–,–,89.5,67.8,12.6,–,69.8,–,15.4,–,–,–,–,–
Active,Active,O=C(c1ccc(OCc2ccccc2)c([N+](=O)[O-])c1)C(Cl)Cl,99,98.6,58.4,67.3,–,inactive,99.3,87.9,29.9,–,29.9,–,–,–,–,–,–,–
Active,Active,CCCCCOc1ccc(C(=O)C(Cl)Cl)cc1[N+](=O)[O-],98.1,93.2,62.9,68,–,inactive,96.9,80.2,32.3,–,36.6,–,–,–,–,–,–,–
Active,Active,CCOc1ccc(C(=O)C(Cl)Cl)cc1[N+](=O)[O-],98.2,94.1,62.3,99.3,–,–,99,88,37.8,–,88,–,57.3,–,–,–,–,–
–,inactive,O=C(c1ccccc1[N+](=O)[O-])C(Cl)Cl,93.7,61.5,4.8,49.9,–,inactive,6.1,4.4,1.9,–,22.4,–,–,–,–,–,–,–
–,19.7 to 67.9%,COc1ccc(C(=O)C(Cl)Cl)cc1,98.3,95.8,35.1,84.9,–,–,86.1,50.1,7.5,–,56.8,–,32.5,–,–,–,–,–
–,inactive,CCCCc1ccc(C(=O)C(Cl)Cl)cc1[N+](=O)[O-],100,65.2,39.8,97.5,–,–,56.9,12,–,–,57.2,inactive,22.3,–,–,–,–,–
